{"source": "patent US20170202838A1", "about": "“IMMUNOMODULATOR” (TAIHO PHARMACEUTICAL CO., LTD., priority 2015, published 2017)", "key": {"B16F10 [1]": {"test_system": "B16F10", "assay": "In vitro growth of mouse melanoma cell line B16F10, CellTiter-Glo2.0 (Reference Example 1)", "type": "cell-based", "conditions": "B16F10, 3 days culture", "method": "(§1) The mouse melanoma cell lines B16F10 and K1735M2 and the mouse colon cancer cell line MC38 were seeded in a 96-well plate at 3×10^3 cells/well. Compound (I) or the EGFR tyrosine kinase inhibitor (i.e., Erlotinib, Afatinib, AZD9291, or Co1686 (Rociletinib)) that had been diluted to the given concentration was added 24 hours later. Thereafter, culture was conducted for 3 days, and the number of cells was determined using CellTiter-Glo2.0 (Promega, G9243)."}, "B16F10 [2]": {"test_system": "B16F10", "assay": "Pulmonary metastatic nodules after intravenous injection of mouse melanoma cell line, in vivo model (Example 8)", "conditions": "oral 12.5 mg/kg or 50 mg/kg, 14 days after implantation, compared with control group (FIG. 10)", "method": "A cell suspension of the mouse melanoma cell line B16F10 was prepared with the use of PBS(-), and the cell suspension was injected intravenously into the mouse caudal portion at 5×10^5 cells/mouse. Compound (I) was administered orally to the mouse model at 12.5 mg/kg or 50 mg/kg on the previous day of B16F10 implantation. The number of pulmonary metastatic nodules was evaluated 14 days after implantation (i.e., 15 days after drug administration). […] On the basis of the results above and the results of Reference Example 1 such that the tumor growth inhibitory effects were not observed in the in vitro model, it was deduced that the decreased number of pulmonary metastatic nodules was achieved by the immunomodulation activity of Compound (I)."}, "mouse spleen cells [3]": {"test_system": "mouse spleen cells", "assay": "Induction of IL-2 production of mouse spleen cells stimulated with anti-CD3 antibody and anti-CD28 antibody (Example 1)", "type": "cell-based", "method": "The mouse spleen was extracted, grinded with glass slides with frosted areas, and then subjected to hemolysis, so as to obtain spleen cells. The resulting spleen cells were introduced into a complete medium (i.e., RPMI-1640 supplemented with 10% heat-inactivated FBS, 100 U/ml penicillin, 100 μg/ml streptomycin, and 55 μM 2-mercaptoethanol) to a cell density of 2×10^6 cells/ml, the anti-CD3 antibody and the anti-CD28 antibody were added thereto to the final concentrations of 3 μg/ml and 0.5 μg/ml, respectively, and Compound (I) was further added thereto to each final concentration. The culture solution was seeded in a 96-well plate at 200 μl/well and then cultured in an incubator at 37° C. in the presence of 5% CO2 for 2 days. The culture supernatant was recovered, and the concentration of IL-2 contained therein was measured via ELISA using anti-mIL-2 antibody.\nAlso, culture was conducted in the same manner with the addition of the anti-CD3 antibody at a variable final concentration, the anti-CD28 antibody at the final concentration of 0.5 μg/ml, and Compound (I) at the final concentration of 0.0 μM or 0.1 μM, and the IL-2 concentration in the culture supernatant was measured."}, "mouse spleen cells [4]": {"test_system": "mouse spleen cells", "assay": "Excitation of T cell growth, CFSE flow cytometry of CD4- and CD8-positive spleen cells (Example 4)", "type": "cell-based", "conditions": "anti-CD3 1 μg/ml and anti-CD28 1 μg/ml, 3 days; comparators at 0.1 μM (FIG. 5)", "method": "The mouse spleen was extracted, grinded with glass slides with frosted areas, and then subjected to hemolysis, so as to obtain spleen cells. The spleen cells were suspended in 5 ml of a staining buffer (0.5% BSA, 2 mM EDTA, PBS(-)), and the cells were stained with 5 μM CFSE (5-carboxyfluorescein succinimidyl ester). Thereafter, the stained cells were washed with an ice-cooled complete medium (RPMI-1640). The CFSE-stained spleen cells were introduced into a complete medium (i.e., RPMI-1640 supplemented with 10% heat-inactivated FBS, 100 U/ml penicillin, 100 μg/ml streptomycin, and 55 μM 2-mercaptoethanol) to prepare a cell suspension (1×10^6 cells/ml), the anti-CD3 antibody and the anti-CD28 antibody were added at 1 μg/ml and 1 μg/ml, respectively, and Compound (I) adjusted to various concentrations or the EGFR tyrosine kinase inhibitor (i.e., AZD09291, Erlotinib, Co1686 (Rociletinib), Ibrutinib, Sunitinib, or Dasatinib) was added at 0.1 μM. […] These culture solutions were seeded in a 96-well plate at 200 μl/well and then cultured in an incubator at 37° C. in the presence of 5% CO2 for 3 days. The cells were recovered and stained with the anti-CD4 antibody and the anti-CD8 antibody. The amounts of CFSE in CD4- and CD8-positive cells were analyzed via flow cytometry.\nOnce CFSE is incorporated into a cell, the amount thereof is kept constant in the cell. Since the amount of CFSE per cell decreases by half upon cell division, according to flow cytometric analysis, the intensity of CFSE staining is attenuated and is shifted toward left (i.e., lower level) in the chart, as cell division proceeds. […] In the case of the samples to which other types of EGFR tyrosine kinase inhibitors had been added, in contrast, no such activity for enhancing the cell growth was observed."}, "MC38": {"test_system": "MC38", "assay": "In vitro growth of mouse colon cancer cell line MC38, CellTiter-Glo2.0 (Reference Example 1)", "type": "cell-based", "conditions": "MC38, 3 days culture", "method": "as §1"}, "K1735M2": {"test_system": "K1735M2", "assay": "Tumor volume of subcutaneous mouse melanoma cell line, potentiation of anti-PD-1 or anti-PD-L1 antibody, in vivo model (Example 10)", "conditions": "Compound (I) 50 mg/kg, antibody 100 μg/mouse, alone or in combination (FIG. 12)", "method": "A cell suspension of the mouse melanoma cell line K1735M2 was prepared with the use of PBS(-) and 50% Matrigel, and the cell suspension was injected subcutaneously into mice at 1×10^6 cells/mouse. The mice were divided into groups based on their body weights 1 day after implantation, Compound (I) (50 mg/kg) or the anti-PD-1 antibody or anti-PD-L1 antibody (100 μg/mouse) was administered thereto alone or either the anti-PD-1 antibody or the anti-PD-L1 antibody was administered in combination with Compound (I), and the tumor volume was measured with the elapse of time. The tumor volume was determined on the basis of the longer diameter and the shorter diameter of the tumor measured percutaneously in accordance with Equation A shown above."}}}
{"smiles": "C=CC(=O)N[C@H]1CCc2c(-c3cnc4ccccc4c3)c3c(N)ncnc3n2C1", "note": "[Compound (I), (S)—N-(4-amino-5-(quinolin-3-yl)-6,7,8,9-tetrahydropyrimido[5,4-b]indolizin-8-yl)acrylamide]", "values": [{"measurement": "suppression of cell growth (number of cells)", "setting": "B16F10 [1]", "result": "did not suppress the growth of any cells"}, {"measurement": "number of pulmonary metastatic nodules", "setting": "B16F10 [2]", "result": "decreased in a dose-dependent manner"}, {"measurement": "concentration of IL-2 produced by mouse spleen cells in the culture supernatant", "setting": "mouse spleen cells [3]; anti-CD3 antibody 3 μg/ml and anti-CD28 antibody 0.5 μg/ml constant, Compound (I) variable, 2 days, ELISA (FIG. 1)", "result": "increased as the amount of Compound (I) added increased"}, {"measurement": "concentration of IL-2 produced by mouse spleen cells in the culture supernatant", "setting": "mouse spleen cells [3]; anti-CD3 antibody variable, anti-CD28 antibody 0.5 μg/ml, Compound (I) 0.1 μM vs 0.0 μM (FIG. 2)", "result": "IL-2 production was induced upon stimulation with the anti-CD3 antibody"}, {"measurement": "amount of CFSE per CD4-positive cell (cell growth)", "setting": "mouse spleen cells [4]", "result": "decreases"}, {"measurement": "amount of CFSE per CD8-positive cell (cell growth)", "setting": "mouse spleen cells [4]", "result": "decreases"}, {"measurement": "suppression of cell growth (number of cells)", "setting": "MC38", "result": "did not suppress the growth of any cells"}, {"measurement": "extent of tumor growth inhibition (tumor volume)", "setting": "K1735M2", "result": "not sufficient"}]}
